Data from the supplement of paper PMC10307832.

Experiments:
Test in all cases: relative viability (nuclei count vs DMSO), 5 days (fraction); higher = more cells survive
IU1-47 + Olaparib = compound: CC1=CC(=C(N1C2=CC=C(C=C2)Cl)C)C(=O)CN3CCCCC3 [IU1-47] + O=C(c1cc(Cc2n[nH]c(=O)c3ccccc23)ccc1F)N1CCN(C(=O)C2CC2)CC1 [Olaparib] (partner 8 µM)
Outline: (§1)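 Relative viability equals treated-well nuclei counts divided by vehicle-well nuclei counts. Counts came from 4× images of lung cancer cell lines grown in 1536-well plates for 5 days after pin-tool dosing on the day after seeding. Dosing used one drug alone or a fixed anchor-drug dose plus five library-drug doses (not always all listed) in √10 steps, and values are medians of duplicate plates.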

IU1-47 + AZD7762 = compound: CC1=CC(=C(N1C2=CC=C(C=C2)Cl)C)C(=O)CN3CCCCC3 [IU1-47] + NC(=O)Nc1cc(-c2cccc(F)c2)sc1C(=O)N[C@H]1CCCNC1 [AZD7762] (partner 0.2 µM)
Outline: as §1

FG-4592 + Crizotinib = compound: Cc1nc(C(=O)NCC(=O)O)c(O)c2ccc(Oc3ccccc3)cc12 [FG-4592] + C[C@@H](Oc1cc(-c2cnn(C3CCNCC3)c2)cnc1N)c1c(Cl)ccc(F)c1Cl [Crizotinib] (partner 1 µM)
Outline: as §1

FG-4592 + Foretinib = compound: Cc1nc(C(=O)NCC(=O)O)c(O)c2ccc(Oc3ccccc3)cc12 [FG-4592] + COc1cc2c(Oc3ccc(NC(=O)C4(C(=O)Nc5ccc(F)cc5)CC4)cc3F)ccnc2cc1OCCCN1CCOCC1 [Foretinib] (partner 0.25 µM)
Outline: as §1

| Cell Line | relative viability (IU1-47 + Olaparib; first compound 0.08 µM) | relative viability (IU1-47 + Olaparib; first compound 0.253 µM) | relative viability (IU1-47 + Olaparib; first compound 0.8 µM) | relative viability (IU1-47 + Olaparib; first compound 2.53 µM) | relative viability (IU1-47 + Olaparib; first compound 8 µM) | relative viability (IU1-47 + AZD7762; first compound 0.08 µM) | relative viability (IU1-47 + AZD7762; first compound 0.253 µM) | relative viability (IU1-47 + AZD7762; first compound 0.8 µM) | relative viability (IU1-47 + AZD7762; first compound 2.53 µM) | relative viability (IU1-47 + AZD7762; first compound 8 µM) | relative viability (FG-4592 + Crizotinib; first compound 0.08 µM) | relative viability (FG-4592 + Crizotinib; first compound 0.253 µM) | relative viability (FG-4592 + Crizotinib; first compound 0.8 µM) | relative viability (FG-4592 + Crizotinib; first compound 2.53 µM) | relative viability (FG-4592 + Crizotinib; first compound 8 µM) | relative viability (FG-4592 + Foretinib; first compound 0.08 µM) | relative viability (FG-4592 + Foretinib; first compound 0.253 µM) | relative viability (FG-4592 + Foretinib; first compound 2.53 µM) | relative viability (FG-4592 + Foretinib; first compound 8 µM) | relative viability (FG-4592 + Foretinib; first compound 0.8 µM) |
| --- | --- | --- | --- | --- | --- | --- | --- | --- | --- | --- | --- | --- | --- | --- | --- | --- | --- | --- | --- | --- |
| 201T | 0.829 | 0.869 | 0.854 | 0.838 | 0.666 | 0.696 | 0.592 | 0.633 | 0.504 | 0.78 | 1 | 1.01 | 1.05 | 1.02 | 0.974 | 1.11 | 1.04 | 1.15 | 1.07 | – |
| A549 | 0.467 | 0.28 | 0.324 | – | 0.371 | – | – | – | – | – | 0.631 | 0.736 | 0.87 | 0.831 | 0.826 | 1.01 | 0.898 | 0.991 | 0.866 | 1.03 |
| A-427 | 0.81 | 0.811 | 0.716 | 0.82 | 0.711 | 0.747 | 0.908 | 0.596 | 0.82 | 0.562 | 0.801 | 0.899 | 0.923 | 0.933 | 1.01 | 0.98 | 1.11 | 0.98 | 1.18 | 1.03 |
| ABC-1 | 1.14 | 1.05 | 0.816 | – | 0.907 | 0.765 | 0.671 | 0.774 | – | 0.729 | 1.28 | – | 1.64 | 1.18 | 1.13 | 0.938 | 0.929 | 1.03 | 0.76 | 1.03 |
| BEN | 1.1 | 1.06 | 1.12 | 1.11 | 0.933 | 0.677 | 0.638 | 0.761 | 0.535 | 0.739 | 0.729 | 0.745 | 0.743 | 0.803 | 0.594 | 0.522 | 0.597 | 0.764 | 0.464 | 0.607 |
| CAL-12T | 0.705 | 0.726 | 0.747 | 0.797 | 0.863 | 0.622 | 0.695 | 0.695 | 0.601 | 0.629 | 0.664 | 0.62 | 0.753 | 0.677 | 0.585 | 1.05 | 0.746 | 1.02 | 1.01 | 1.06 |
| COR-L23 | 0.382 | 0.389 | 0.314 | 0.396 | 0.405 | – | – | – | – | – | 0.574 | 0.571 | 0.833 | 0.679 | 0.638 | 0.856 | 0.832 | 0.982 | 0.991 | 1.03 |
| COR-L 105 | 0.817 | 0.78 | 0.699 | 0.665 | 0.745 | – | – | – | – | – | 0.785 | 0.578 | 0.77 | 0.898 | 0.723 | 0.817 | 1.06 | 0.96 | 0.718 | 1.2 |
| Calu-6 | 0.618 | 0.566 | 0.586 | 0.617 | 0.616 | – | – | – | – | – | 0.753 | 0.811 | 0.855 | 0.832 | 0.707 | 0.907 | 0.887 | 0.924 | 0.758 | 0.966 |
| ChaGo-K-1 | 0.433 | 0.393 | 0.435 | 0.452 | 0.362 | 0.934 | 1.01 | 0.91 | 0.91 | 0.954 | 1.12 | 1.09 | 1.14 | 1.09 | 0.942 | 0.997 | 0.834 | 0.973 | 0.897 | 0.919 |
| EBC-1 | 0.685 | 0.691 | 0.696 | 0.663 | 0.766 | – | – | – | – | – | 0.189 | 0.186 | 0.178 | 0.19 | 0.222 | 0.11 | 0.0946 | 0.0866 | 0.1 | 0.106 |
| EKVX | 0.827 | 1.06 | 0.896 | – | 0.87 | 0.894 | 0.866 | 0.725 | – | 0.756 | 1.08 | 0.816 | 1.23 | 0.977 | 1.02 | 0.744 | 0.804 | 0.717 | 1.04 | 0.773 |
| EMC-BAC-2 | 0.507 | 0.548 | 0.402 | 0.534 | 0.533 | 1.1 | 1.24 | 1.09 | 1.07 | 1.07 | 0.736 | 0.749 | 0.813 | 0.772 | 0.731 | 0.997 | 0.995 | 1.06 | 0.977 | 1.01 |
| EPLC-272H | 0.77 | 0.867 | 0.684 | 0.851 | 0.92 | 0.232 | 0.205 | 0.226 | – | 0.217 | 0.844 | 0.72 | 0.631 | 0.888 | 0.873 | 0.755 | 0.738 | 0.706 | 0.641 | 0.521 |
| H3255 | 0.64 | 0.609 | 0.569 | 0.54 | 0.561 | 1.19 | 1.01 | 1.08 | 0.877 | 0.893 | 0.963 | 0.79 | 0.827 | 0.917 | 1.05 | 0.848 | 0.752 | 0.903 | 0.947 | 0.881 |
| HARA | 1.02 | – | 0.703 | 0.632 | 0.567 | 0.394 | – | 0.359 | 0.176 | 0.273 | 1.06 | 0.967 | – | 1 | 0.977 | 0.834 | 0.87 | 0.885 | 0.878 | 0.896 |
| HCC-15 | 0.75 | 0.722 | 0.767 | 0.711 | 0.662 | 1.15 | 1.5 | 1.4 | – | 1.23 | 0.819 | 0.712 | 0.808 | 0.866 | 0.875 | 1.03 | 0.978 | 0.93 | 1.07 | 1.04 |
| HCC-44 | 1.07 | 0.978 | 1.03 | 1.06 | 0.93 | 1 | 1.07 | 1.04 | 0.959 | 1.04 | 0.754 | 0.798 | 0.878 | 0.805 | 0.82 | – | – | – | – | – |
